Measured values taken from US6710032B1, “In situ formation of CLA” (University of Maryland, priority 1998, dated 2004).

How the values were obtained:
[1] = test system: C57/B1/6J mice; experiment: Example 6: mouse milk fat and milk/fecal fatty acids when fed 18:1 isomer diets; type: in vivo; conditions: for Level of the test isomer in milk, % of the fat: day 10, fed the isomer diet; for Milk fat on day 10 versus day 6 of lactation: isomer about 25% of dietary fat, fed four days, creamatocrit
Text: C57/B1/6J mice fed a control diet (10 wt % fat) were switched to one of four isomer diets at day 6 of lactation after milk collection. Approximately 25% of the dietary fat (5 caloric %) during the treatment period was replaced with one of four specific isomers of oleic acid, either cis-9; cis-11; trans-9 or trans-11, other diet components were identical. The mice consumed these diets ad libitum for four days and were milked again on day 10 of lactation. Milk and fecal fatty acid composition was analyzed as fatty acid methyl esters by GC. Specific isomers were identified by relative retention times. Milk fat percentage was determined by the creamatocrit method and differences between day 6 and day 10 fat percentages were evaluated by a paired t-test.
A lactating mouse is milked after injection of oxytocin(0.2 ml of a 1 IU/ml solution) immediately prior to milking. Milking is accomplished by creating a suction through tube 26 and inserting the funnel end 28 or tube 26 onto the teat of a lactating mouse in the upside-down position. As milk is collected into the funnel, a small capillary tube (i.e. the same as that used to collect human blood samples) is manually positioned within the funnel to collect milk by capillary action. Failure to promptly collect the milk will expose the milk to evaporation thus increasing fat content of the sample.

[2] = test system: cows; experiment: Ingestion of C18 trans 11 fats in cows, milk fat levels; conditions: in vivo

SMILES	Level of the test isomer in milk, % of the fat [1]	Milk fat on day 10 versus day 6 of lactation [1]	Milk fat levels in cows [2]	Milk fat on day 10 versus day 6 of lactation ([1]; listed as C18:1 t-11)
CCCCCC/C=C\CCCCCCCCCC(=O)O [cis-11, cis-11 18:1 fatty acid]	10%	not statistically different	–	–
CCCCCC/C=C/CCCCCCCCCC(=O)O [trans-11, trans-11 18:1 fatty acid]	3%	not statistically different	do not reduce milk fat levels	does not reduce milk fat
CCCCCCCC/C=C\CCCCCCCC(=O)O [Cis-9, cis-9 18:1 fatty acid]	–	identical fat values on days 6 and 10	–	–
CCCCCCCC/C=C/CCCCCCCC(=O)O [trans-9, trans-9 18:1 fatty acid]	5.8%	statistically lower	–	–
